According to PubChem BioAssay (NCI):
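Cells were grown in 96-well plates and exposed to each compound for 48 hours at five concentrations; endpoints were interpolated linearly between bracketing concentrations, or set to the highest concentration if not reached. TGI is the concentration that stops growth completely.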

Test system: NCI-H522 lung
Assay: DTP human tumour cell line panel, 48 h

Row | SMILES | TGI [µM]
1 | O=C(O)CNc1cc(-c2ccccc2)nc(NCC(=O)O)n1 | > 100
2 | COC(=O)C12C3C4C1C1C2C3C41C(=O)OC(C)(C)C (configuration not stated) | > 100

Test system: KM12 colon
Assay: DTP human tumour cell line panel, 48 h

Row | SMILES | TGI [µM]
3 | COC(=O)C(C(=O)C(=O)Nc1cccc(OC)c1)c1cnc2ccccc2n1 (configuration not stated) | > 100
4 | O=C(O)CNc1cc(-c2ccccc2)nc(NCC(=O)O)n1 | > 100
5 | O=c1nc2occc2cn1C1CC(O)C(CO)O1 (configuration not stated) | > 100
6 | COC(=O)C12C3C4C1C1C2C3C41C(=O)OC(C)(C)C (configuration not stated) | > 100

Test system: UO-31 renal
Assay: DTP human tumour cell line panel, 48 h

Row | SMILES | TGI [µM]
7 | COC(=O)C(C(=O)C(=O)Nc1cccc(OC)c1)c1cnc2ccccc2n1 (configuration not stated) | > 100
8 | O=C(O)CNc1cc(-c2ccccc2)nc(NCC(=O)O)n1 | > 100
9 | O=c1nc2occc2cn1C1CC(O)C(CO)O1 (configuration not stated) | > 100
10 | COC(=O)C12C3C4C1C1C2C3C41C(=O)OC(C)(C)C (configuration not stated) | > 100

Test system: 786-0 renal
Assay: DTP human tumour cell line panel, 48 h

Row | SMILES | TGI [µM]
11 | COC(=O)C(C(=O)C(=O)Nc1cccc(OC)c1)c1cnc2ccccc2n1 (configuration not stated) | > 100
12 | O=C(O)CNc1cc(-c2ccccc2)nc(NCC(=O)O)n1 | > 100
13 | O=c1nc2occc2cn1C1CC(O)C(CO)O1 (configuration not stated) | > 100
14 | COC(=O)C12C3C4C1C1C2C3C41C(=O)OC(C)(C)C (configuration not stated) | > 100

Test system: KM20L2 colon
Assay: DTP human tumour cell line panel, 48 h

Row | SMILES | TGI [µM]
15 | COC(=O)C(C(=O)C(=O)Nc1cccc(OC)c1)c1cnc2ccccc2n1 (configuration not stated) | > 100
16 | O=C(O)CNc1cc(-c2ccccc2)nc(NCC(=O)O)n1 | > 100
17 | O=c1nc2occc2cn1C1CC(O)C(CO)O1 (configuration not stated) | > 100
18 | COC(=O)C12C3C4C1C1C2C3C41C(=O)OC(C)(C)C (configuration not stated) | > 100

Test system: SF-539 CNS
Assay: DTP human tumour cell line panel, 48 h

Row | SMILES | TGI [µM]
19 | COC(=O)C(C(=O)C(=O)Nc1cccc(OC)c1)c1cnc2ccccc2n1 (configuration not stated) | > 100
20 | O=C(O)CNc1cc(-c2ccccc2)nc(NCC(=O)O)n1 | > 100
21 | O=c1nc2occc2cn1C1CC(O)C(CO)O1 (configuration not stated) | > 100
22 | COC(=O)C12C3C4C1C1C2C3C41C(=O)OC(C)(C)C (configuration not stated) | > 100

Test system: HOP-92 NSCLC
Assay: DTP human tumour cell line panel, 48 h

Row | SMILES | TGI [µM]
23 | COC(=O)C(C(=O)C(=O)Nc1cccc(OC)c1)c1cnc2ccccc2n1 (configuration not stated) | > 100
24 | O=C(O)CNc1cc(-c2ccccc2)nc(NCC(=O)O)n1 | > 100
25 | O=c1nc2occc2cn1C1CC(O)C(CO)O1 (configuration not stated) | > 100
26 | COC(=O)C12C3C4C1C1C2C3C41C(=O)OC(C)(C)C (configuration not stated) | > 100

Test system: A549 NSCLC
Assay: DTP human tumour cell line panel, 48 h

Row | SMILES | TGI [µM]
27 | COC(=O)C(C(=O)C(=O)Nc1cccc(OC)c1)c1cnc2ccccc2n1 (configuration not stated) | > 100
28 | O=C(O)CNc1cc(-c2ccccc2)nc(NCC(=O)O)n1 | > 100
29 | O=c1nc2occc2cn1C1CC(O)C(CO)O1 (configuration not stated) | > 100
30 | COC(=O)C12C3C4C1C1C2C3C41C(=O)OC(C)(C)C (configuration not stated) | > 100

Test system: SW-620 colon
Assay: DTP human tumour cell line panel, 48 h

Row | SMILES | TGI [µM]
31 | COC(=O)C(C(=O)C(=O)Nc1cccc(OC)c1)c1cnc2ccccc2n1 (configuration not stated) | > 100
32 | O=C(O)CNc1cc(-c2ccccc2)nc(NCC(=O)O)n1 | > 100
33 | O=c1nc2occc2cn1C1CC(O)C(CO)O1 (configuration not stated) | > 100
34 | COC(=O)C12C3C4C1C1C2C3C41C(=O)OC(C)(C)C (configuration not stated) | > 75

Test system: RPMI-8226 leukemia
Assay: DTP human tumour cell line panel, 48 h

Row | SMILES | TGI [µM]
35 | COC(=O)C(C(=O)C(=O)Nc1cccc(OC)c1)c1cnc2ccccc2n1 (configuration not stated) | > 100
36 | O=C(O)CNc1cc(-c2ccccc2)nc(NCC(=O)O)n1 | > 100
37 | O=c1nc2occc2cn1C1CC(O)C(CO)O1 (configuration not stated) | > 100
38 | COC(=O)C12C3C4C1C1C2C3C41C(=O)OC(C)(C)C (configuration not stated) | > 72.3

Test system: SR leukemia
Assay: DTP human tumour cell line panel, 48 h

Row | SMILES | TGI [µM]
39 | COC(=O)C(C(=O)C(=O)Nc1cccc(OC)c1)c1cnc2ccccc2n1 (configuration not stated) | > 100
40 | O=C(O)CNc1cc(-c2ccccc2)nc(NCC(=O)O)n1 | > 100
41 | O=c1nc2occc2cn1C1CC(O)C(CO)O1 (configuration not stated) | > 100
42 | COC(=O)C12C3C4C1C1C2C3C41C(=O)OC(C)(C)C (configuration not stated) | 44.1

Test system: HT29 colon
Assay: DTP human tumour cell line panel, 48 h

Row | SMILES | TGI [µM]
43 | COC(=O)C(C(=O)C(=O)Nc1cccc(OC)c1)c1cnc2ccccc2n1 (configuration not stated) | > 100
44 | O=C(O)CNc1cc(-c2ccccc2)nc(NCC(=O)O)n1 | > 100
45 | O=c1nc2occc2cn1C1CC(O)C(CO)O1 (configuration not stated) | > 100
46 | COC(=O)C12C3C4C1C1C2C3C41C(=O)OC(C)(C)C (configuration not stated) | > 100

Test system: RXF-631 renal
Assay: DTP human tumour cell line panel, 48 h

Row | SMILES | TGI [µM]
47 | COC(=O)C(C(=O)C(=O)Nc1cccc(OC)c1)c1cnc2ccccc2n1 (configuration not stated) | > 100
48 | O=C(O)CNc1cc(-c2ccccc2)nc(NCC(=O)O)n1 | > 100
49 | O=c1nc2occc2cn1C1CC(O)C(CO)O1 (configuration not stated) | > 100
50 | COC(=O)C12C3C4C1C1C2C3C41C(=O)OC(C)(C)C (configuration not stated) | > 100

Test system: TK-10 renal
Assay: DTP human tumour cell line panel, 48 h

Row | SMILES | TGI [µM]
51 | COC(=O)C(C(=O)C(=O)Nc1cccc(OC)c1)c1cnc2ccccc2n1 (configuration not stated) | > 100
52 | O=C(O)CNc1cc(-c2ccccc2)nc(NCC(=O)O)n1 | > 100
53 | O=c1nc2occc2cn1C1CC(O)C(CO)O1 (configuration not stated) | > 100
54 | COC(=O)C12C3C4C1C1C2C3C41C(=O)OC(C)(C)C (configuration not stated) | > 100

Test system: SK-MEL-2 melanoma
Assay: DTP human tumour cell line panel, 48 h

Row | SMILES | TGI [µM]
55 | COC(=O)C(C(=O)C(=O)Nc1cccc(OC)c1)c1cnc2ccccc2n1 (configuration not stated) | > 100
56 | O=C(O)CNc1cc(-c2ccccc2)nc(NCC(=O)O)n1 | > 100
57 | COC(=O)C12C3C4C1C1C2C3C41C(=O)OC(C)(C)C (configuration not stated) | > 100
